Several values for one entry are separate records, joined by “and”; a condition that tells them apart may be missing. Equal entries are not always repeated. Where two headings read alike, the source gives them in different places. Numbered stars: 1 amine (or outer) side, 2 acyl side, 3 side chain; on linkers, the order of the positions; unused ones are H or OH. Bridge positions count the residues as written; N and C are the ends. Square brackets hold non-standard residues; d marks the D form. Peptide text beside a SMILES is read from it. I, II: the chains in the order shown. Actinocin(9to1) = Cc1c2oc3c(C)ccc(C(=O)[*:1])c3nc-2c(C(=O)[*:2])c(N)c1=O; NMeV = CN[C@H](C(=O)O)C(C)C; Sar = CNCC(=O)O
Key:
[1] = NR viability assay, THP-1; type: cell-based, Homo sapiens; settings: human, THP-1, NR assay, 72 h; read-out: Viability CC50
Description: (§1) The HEK001 (Homo sapiens cutaneous keratinocyte, CCL-2404), WS1 (Homo sapiens cutaneous fibroblast, CRL-1502), HMCB (Homo sapiens cutaneous melanoma, CRL-9607), and THP-1 (Homo sapiens peripheral blood monocyte, TIB-202) cell lines used in this study were obtained from the American Type Culture Collection (ATCC, Manassas, VA, USA). Cultivated in a Roswell Park Memorial Institute (RPMI) 1640 medium (RPMI 1640 Merck, Cat. No. R7755, New York, NY, USA) supplemented with 2 mM L-glutamine (≥99% Merck, Cat. No. 56-85-9), 10% fetal bovine serum (FBS Merck, Cat. No. TMS-016, St. Louis, MO, USA), and 10,000 units of penicillin and 10 mg streptomycin/mL (Merck, Cat. No. P4333, St. Louis, MO, USA) in culture flasks, the cells were maintained in an incubator under normoxic conditions (20–21% O2) and a humidified atmosphere (5% CO2 at 37 °C).
(§2) Mother solutions of samples (extracts, fractions, and compounds) were prepared at a concentration of […] using dimethyl sulfoxide (DMSO ≥ 99.9% Merck, Cat. No. 67-68-5, St. Louis, MO, USA) as the solvent. From these mother solutions, dilutions were prepared at concentrations ranging from 100 to 0.20 μg/mL or μM in culture medium containing 0.5% DMSO. Additionally, a negative control group consisting solely of culture medium with 0.5% DMSO was included to assess its potential cytotoxic effect on the cells.
(§3) Cell viability was evaluated using a colorimetric assay in 96-well plates, employing 3-amino-7-dimethylamino-2-methylphenazine hydrochloride salt reagent (NR, Merck, Cat. No. 553-24-2, St. Louis, MO, USA).
(§4) HEK001, WS1, HMCB, and THP-1 cell lines were cultured in 96-well plates at 37 °C with 5% CO2 until > 90% confluency was achieved (1 × 10^6 cells/well). Subsequently, the cultures were treated with sample dilutions (100–0.20 μg/mL or μM) for 72 h at 37 °C with 5% CO2 in phenol red-free RPMI. The supernatant was then discarded and the cells were washed with phosphate-buffered saline (PBS) before being incubated with […] NR (50 μg/mL; 173 μM) for 3 h at 37 °C with 5% CO2. NR labelling was performed after DMSO treatment. After incubation, the labelled sample dilutions were rapidly washed with a fixative solution composed of 1% calcium chloride (CaCl2 Merck, Cat. No. 10043-52-4, St. Louis, MO, USA) and 0.5% formaldehyde solution (≥36.0% in H2O Merck, Cat. No. 50-00-0, St. Louis, MO, USA), then diluted with 100 μL of the NR extraction solution. Finally, the plates were read at 540 nm using a microplate reader (Anthos 2020, version 2.0.5, Biochrom Ltd., Cambridge, UK).

[2] = NR viability assay, HEK001; type: cell-based, Homo sapiens; settings: human; HEK001, NR assay, 72 h; read-out: Viability CC50
Description: as §1, §2, §3, §4

NR viability assay, WS1 = type: cell-based, Homo sapiens; settings: human; WS1, NR assay, 72 h; read-out: Viability CC50
Description: as §1, §2, §3, §4

NR viability assay, HMCB = type: cell-based, Homo sapiens; settings: human; HMCB, NR assay, 72 h; read-out: Viability CC50
Description: as §1, §2, §3, §4

[3] = tested on: HEK001, WS1, HMCB, and THP-1 cell lines; assay: Viability assay, positive control value of the method (cell line not stated); type: cell-based; settings: Homo sapiens
Description: as §3, §4

Nrf2 [4] = assay: Nrf2 activation assay, THP-1; type: cell-based; settings: Homo sapiens, THP-1, 72 h; read-out: Activation of Nrf2 production EC50
Description: (§5) To determine the antioxidant response of the samples (at the same concentration as in the viability assay), Nrf2 activation assay was used, following the protocol carried out by Apaza Ticona et al.. Cells were cultured in 96-well plates (1 × 10^6 cells/well). […] Absorbance was measured at 540 nm using a microplate reader.

Nrf2 [5] = assay: Nrf2 activation assay, HEK001; type: cell-based; settings: Homo sapiens, HEK001, 72 h; read-out: Activation of Nrf2 production EC50
Description: as §5

Nrf2 [6] = assay: Nrf2 activation assay, WS1; type: cell-based; settings: Homo sapiens; WS1, 72 h; read-out: Activation of Nrf2 production EC50
Description: as §5

Nrf2 [7] = assay: Nrf2 activation assay, HMCB; type: cell-based; settings: Homo sapiens, 72 h, read-out: Activation of Nrf2 production EC50
Description: as §5

Nrf2 [8] = assay: Nrf2 activation assay, positive control value of the method (cell line not stated); type: cell-based; settings: Homo sapiens
Description: as §5

NF-κB [9] = assay: NF-κB inhibition assay (LPS-stimulated), THP-1; type: cell-based; settings: Homo sapiens, THP-1, 72 h, read-out: NF-κB Inhibition at 72 h IC50 ± SEM
Description: (§6) To determine the anti-inflammatory activity of the samples (at the same concentration as in the viability assay), NF-κB inhibition assay was used, following the protocol carried out by Apaza Ticona et al.. Cells were cultured in 96-well plates (1 × 10^6 cells/well). […] Absorbance was measured at 450 nm using a microplate reader.

NF-κB [10] = assay: NF-κB inhibition assay (LPS-stimulated), HEK001; type: cell-based; settings: Homo sapiens, HEK001, 72 h, read-out: NF-κB Inhibition at 72 h IC50 ± SEM
Description: as §6

NF-κB [11] = assay: NF-κB inhibition assay (LPS-stimulated), WS1; type: cell-based; settings: Homo sapiens, 72 h, read-out: NF-κB Inhibition at 72 h IC50 ± SEM
Description: as §6

NF-κB [12] = assay: NF-κB inhibition assay (LPS-stimulated), HMCB; type: cell-based; settings: Homo sapiens, 72 h, read-out: NF-κB Inhibition at 72 h IC50 ± SEM
Description: as §6

NF-κB [13] = assay: NF-κB inhibition assay, positive control value of the method (cell line not stated); type: cell-based; settings: Homo sapiens
Description: as §6

[14] = target: T1, elastase from porcine pancreas (Sus scrofa, UniProt P00772); assay: Elastase-inhibitory effect assay; type: biochemical
T1 construct: elastase from porcine pancreas (7.5 units/mL); from tissue; host or cells: porcine pancreas
Description: The elastase-inhibitory effect was evaluated, implementing the protocol adapted from Tu and Tawata.
A mixture containing N-succinyl-Ala-Ala-Ala-p-nitroanilide (AAAPVN, Merck, Cat. No. 52299-14-6, St. Louis, MO, USA) elastase substrate in 0.1232 M Tris-HCl buffer solution (pH 8) was prepared to achieve a concentration of 1.015 mM. This elastase substrate was combined with 10 μL of the test samples at the same concentrations used as in the viability assay in 96-well plates and pre-incubated at room temperature (25 ± 5 °C) for 10 min. Subsequently, the reaction was initiated by adding 10 μL of elastase from porcine pancreas (7.5 units/mL) in Tris buffer solution to the pre-incubated mixtures. Absorbance was then measured at 410 nm using a microplate reader.

collagenase = assay: Collagenase inhibitory assay; type: biochemical
Description: A fixed weight of 1 mg of azo dye-impregnated collagen was measured in the test tubes. Subsequently, 800 μL of 0.1 M Tris-HCl (pH 7) and 100 μL of the samples at the same concentrations used as in the viability assay were added to each test tube. Next, 100 μL of collagenase (200 units/mL) was immediately mixed into the mixture and the tubes were incubated at 43 °C for 1 h. After incubation, the test tubes were centrifuged at 3000 rpm for 10 min. The supernatant from each tube was transferred into 96-well plates and the absorbance of each supernatant was measured at 550 nm using a microplate reader.

[15] = tested on: melanin production in HMCB cells; assay: Melanin content assay; type: cell-based; settings: Homo sapiens; HMCB cells, 12 h; read-out: Inhibitory activity of melanin production IC50
Description: To determine the anti-melanogenic activity of the samples (at the same concentration as in the viability assay), melanin inhibition assay was used, following the protocol carried out by Apaza Ticona et al.. HMCB cells were cultured in 96-well plates (1 × 10^6 cells/well). […] Absorbance was measured at 405 nm using a microplate reader.

hyaluronidase = target: T2, hyaluronidase (Bos taurus, UniProt Q2YDK3); settings: cited from earlier work; for Inhibition of active hyaluronidase: 2 mM
T2 sequence (Q2YDK3 36-553): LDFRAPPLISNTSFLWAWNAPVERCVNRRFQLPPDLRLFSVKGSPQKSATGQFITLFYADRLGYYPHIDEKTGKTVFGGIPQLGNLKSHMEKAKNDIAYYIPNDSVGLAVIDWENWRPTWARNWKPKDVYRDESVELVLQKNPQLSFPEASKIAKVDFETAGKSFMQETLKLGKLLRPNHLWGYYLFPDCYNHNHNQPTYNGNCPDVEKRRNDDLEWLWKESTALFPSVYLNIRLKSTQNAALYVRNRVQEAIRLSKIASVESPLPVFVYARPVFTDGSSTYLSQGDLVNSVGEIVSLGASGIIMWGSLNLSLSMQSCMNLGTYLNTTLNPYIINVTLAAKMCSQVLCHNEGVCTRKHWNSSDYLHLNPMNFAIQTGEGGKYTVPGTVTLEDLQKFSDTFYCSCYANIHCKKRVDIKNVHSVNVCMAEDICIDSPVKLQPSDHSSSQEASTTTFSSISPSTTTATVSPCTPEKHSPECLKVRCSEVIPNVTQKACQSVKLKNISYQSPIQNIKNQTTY

[16] = equivalent value for the compounds
[17] = value for the extracts and fractions
[18] = inhibition percentage 'at an IC50', concentration not otherwise stated

T1 sequence (P00772 27-266): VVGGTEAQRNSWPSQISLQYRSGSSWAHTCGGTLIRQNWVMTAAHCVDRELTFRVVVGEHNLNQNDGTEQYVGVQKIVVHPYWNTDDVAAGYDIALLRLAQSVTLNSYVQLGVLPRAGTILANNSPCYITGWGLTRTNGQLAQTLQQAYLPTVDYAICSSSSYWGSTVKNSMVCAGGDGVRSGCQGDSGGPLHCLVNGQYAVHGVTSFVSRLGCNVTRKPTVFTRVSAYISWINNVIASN

Cc1c2oc3c(C)ccc(C(=O)N[C@@H]4C(=O)N[C@H](C(C)C)C(=O)N5CCC[C@H]5C(=O)N(C)CC(=O)N(C)[C@@H](C(C)C)C(=O)O[C@@H]4C)c3nc-2c(C(=O)N[C@@H]2C(=O)N[C@H](C(C)C)C(=O)N3CCC[C@H]3C(=O)N(C)CC(=O)N(C)[C@@H](C(C)C)C(=O)O[C@@H]2C)c(N)c1=O [ACTD, Actinomycin D, reference compound] (I: T[dV]P[Sar][NMeV] / II: T[dV]P[Sar][NMeV]; ester I:1-I:C, II:1-II:C; linker I:N-II:N via Actinocin(9to1))
CC50 at 72 h [1]: 0.0192 µg/mL and 9 nM | CC50 at 72 h [2]: 0.0184 µg/mL and 9 nM | CC50 at 72 h (NR viability assay, WS1): 0.0173 µg/mL and 8 nM | CC50 at 72 h (NR viability assay, HMCB): 0.0161 µg/mL and 7 nM | IC50 [3, 16]: 0.008 µM | IC50 [3, 17]: 0.01 µg/mL

COC(=O)[C@]12CCC(C)(C)C[C@H]1[C@H]1C(=O)C=C3[C@@]4(C)C=C(C#N)C(=O)C(C)(C)[C@@H]4CC[C@@]3(C)[C@]1(C)CC2 [CDDO-Me, 2-Cyano-3,12-dioxo-oleana-1,9(11)-dien-28-oic acid methyl ester, reference compound]
EC50 (Nrf2 [4]): 8e-05 µg/mL and 0.13 nM | EC50 (Nrf2 [5]): 5e-05 µg/mL and 0.08 nM | EC50 (Nrf2 [6]): 6e-05 µg/mL and 0.09 nM | EC50 (Nrf2 [7]): 7e-05 µg/mL and 0.1 nM | EC50 (Nrf2 [8]; [16]): 0.00011 µM | EC50 (Nrf2 [8]; [17]): 0.07 ng/mL

CC1=C(O)C(=O)C=C2C1=CC=C1[C@@]2(C)CC[C@@]2(C)[C@@H]3C[C@](C)(C(=O)O)CC[C@]3(C)CC[C@]12C [Celastrol, reference compound]
IC50 (NF-κB [9]): 7.62 µM and 3.35 µg/mL | IC50 (NF-κB [10]): 7.57 µM and 3.33 µg/mL | IC50 (NF-κB [11]): 7.41 µM and 3.29 µg/mL | IC50 (NF-κB [12]): 7.36 µM and 3.27 µg/mL | IC50 (NF-κB [13]; [16]): 7.41 µM | IC50 (NF-κB [13]; [17]): 3.34 µg/mL

O=C(O[C@@H]1Cc2c(O)cc(O)cc2O[C@@H]1c1cc(O)c(O)c(O)c1)c1cc(O)c(O)c(O)c1 [EGCG, Epigallocatechin gallate, reference compound]
Elastase Inhibition (%) [14, 18]: 98.08 ± 1.74% and 94.44 ± 1.30% | Anti-Elastase IC50 ([14]; marked (*)): 114 µg/mL and 114.38 ± 3.07 µg/mL | IC50 ([14]; read-out: Anti-Elastase IC50): 250 µM | Collagenase Inhibition (%) (collagenase; [18]): 98.81 ± 1.42% and 95.29 ± 2.09% | Anti-Collagenase IC50 (collagenase; marked (*)): 114 µg/mL and 114.04 ± 3.07 µg/mL | IC50 (collagenase; read-out: Anti-Collagenase IC50): 250 µM and 251 µM

O=c1cc(CO)occ1O [Kojic acid, reference compound]
IC50 [15]: 16.4 µM

COc1ccc(/C=C/C(=O)Nc2ccccc2C(=O)O)cc1OC [Tranilast]
Inhibition of active hyaluronidase (hyaluronidase; activator added): 50% | Inhibition of active hyaluronidase (hyaluronidase): 75%

O=C(O)/C=C/c1ccccc1 [trans-cinnamic acid]
Hyaluronidase inhibition (hyaluronidase): more than 60%

— PMC11280343, “Rubus urticifolius Compounds with Antioxidant Activity, and Inhibition Potential against Tyrosinase, Melanin, Hyaluronidase, Elastase, and Collagenase” (Pharmaceuticals, 2024)
